One block for each compound: values may come before it.
What was measured:
[1] = molecular target: wild-type opsin (Homo sapiens, UniProt P08100); assay: 9-cis-retinal binding to opsin; conditions: 3.0 μM purified wild-type opsin
[2] = system: P23H rhodopsin; conditions: P23H knock-in mice; cited from earlier work
[3] = system: P23H Rho transgenic rats; conditions: cited from earlier work
[4] = system: opsin; conditions: cited from earlier work
[5] = system: P23H, E181K and T17M rhodopsin; conditions: cells; cited from earlier work

concentration at which opsin was saturated [1]: 5 µM
Compound: CC1=C(/C=C/C(C)=C\C=C\C(C)=C\C=O)C(C)(C)CCC1 [9-cis-retinal]

Compound: CN(C)C(=N)N=C(N)N [metformin]
transport of P23H rhodopsin to outer segments [2]: increased transport of P23H rhodopsin to outer segments
retinal degeneration [3]: increased retinal degeneration

Compound: CC(=C/C(=O)O)/C=C/C=C(\C)C1C=C2C(C)(C)CCCC2(C)O1 (stereo not drawn) [13-cis-5,8-ERA]
competition with 9-cis-retinal for binding to opsin [4]: appeared to compete with 9-cis-retinal for binding to opsin
folding and transport of rhodopsin mutants [5]: more effective in promoting the folding and transport of the P23H and E181K mutations than it was for the T17M mutation
